Assays:
[1] = tested on: RXRs; conditions: cited from earlier work
[2] = normal male rats; 2 h after subcutaneous administration at 1 mg/kg; cited from earlier work
[3] = tested on: Ide mRNA; assay: Quantitative RT-PCR of Ide mRNA in brains of APP23 mice; format: in vivo, mouse; conditions: day 18, vs vehicle, Am80/HX630 P<0.05, HX630 P=0.062 (not significant)
Method: (§1) APP23 mice begin forming amyloid deposits when they are 6 months old, but memory deficits in the MWM test appear quite early (before 3 months of age). Here, we used 8.5-month-old male APP23 mice and their WT littermates (C57BL/6J). We used stratified random sampling to divide mice (four to six per cage) into four groups to equalize the mean body weight of the study groups: mice given 0.5 mg/kg/d Am80, those given 5 mg/kg/d HX630, those given the mixture of 0.5 mg/kg/d Am80 and 5 mg/kg/d HX630, and those given the vehicle. Am80 and HX630 were suspended in 0.5% (w/v) carboxymethylcellulose solution and were orally administered to mice at 0.5 mg/kg (Am80) or 5 mg/kg (HX630) for 17 consecutive days (once daily at 18:00). Control animals received the same volume of 0.5% (w/v) carboxymethylcellulose solution orally, without the other compounds. We set the 0.5 mg/kg/d dose for Am80 on the basis that this had been found effective in other in vivo studies, such as those by Kawahara et al. and Ishido and Shudo [37]. […]
Total RNA from the cerebral hemispheres, hippocampus, or MG5 cells was prepared by guanidinium thiocyanate-phenol-chloroform extraction. […] Quantitative real-time PCRs were carried out by using the LightCycler 1.5 system (Roche, Mannheim, Germany) with the FastStart DNA Master SYBR Green I LightCycler kit (Roche). […]

[4] = tested on: IDE; assay: Immunoblot of IDE in brains of APP23 mice; format: in vivo, mouse; conditions: day 18, vs vehicle-treated APP23 mice, P<0.05
Method: as §1, with “[37]. Higher doses of Am80 (3 mg/kg/d and 6 mg/kg/d) were also orally administered to mice for 17 consecutive days. Animals were weighed once a week. Mice were subjected to behavioral testing on days 15-18 of the first oral administration of the compounds (at 19:00-23:00). On days 15-17 (not day 18), animals received the compounds at 24:00, after behavioral testing.” for “[37].”

| Compound | binding affinity for RXRs (and RARγ) [1] | cerebral tissue content of Am80 [2] | Ide mRNA level in brain [3] | IDE protein level in the membrane-bound fraction [4] |
| --- | --- | --- | --- | --- |
| CC1(C)CCC(C)(C)c2cc(NC(=O)c3ccc(C(=O)O)cc3)ccc21 [Am80, 4-{(5,6,7,8-tetrahydro-5,5,8,8-tetramethyl-2-naphthalenyl)carbamoyl}benzoic acid] | little or no binding affinity | around 100 pmol/g tissue | – | – |
| CN1c2ccccc2N=C(c2ccc(C(=O)O)cc2)c2cc3c(cc21)C(C)(C)CCC3(C)C [HX630, 4-[5H-2,3-(2,5dimethyl-2,5-hexano)-5-methyldibenzo[b,e]-diazepin-11-yl]benzoic acid] | – | – | slight increase | increased significantly |

Source: US9861640B2, “Medicament for treatment of Alzheimer's disease” (KEMPHYS LTD., priority 2013, dated 2018)
